Reference: US4602017A, “Substituted aromatic compounds” (priority 1979, dated 1986)
Read-outs that look alike come from different tables or passages of the source.

Columns and labels:
[1] = anticonvulsant activity, standard maximal electroshock test (MES); format: in vivo, mice; conditions: Mus musculus, po, read-out: ED50, MES
Experimental: The anticonvulsant activity of certain compounds of the present invention was determined by a standard maximal electroshock test, that described by L. A. Woodbury and V. D. Davenport, Arch. Int. Pharmacodyn.: 1952, 92, 97.

[2] = system: Plasmodium berghei; conditions: Plasmodium berghei in mice; Rees et al, J. Med. Chem., 1972 15, 859; cited from earlier work
[3] = cited from earlier work; for toxicity: J. Med. Chem., 1972 15, 859
[4] = LD50 in mice, p.o.; conditions: mouse, in vivo, po, dose for which 50% of the animals survive 10 days after administration
Experimental: (§1) The LD50's (expressed in mg/kg, p.o.) of 3,5-diamino-6-(2,3-dichlorophenyl)-1,2,4-triazine and 3,5-diamino-6-(2,5-dichlorophenyl)-1,2,4,-triazine were determined in mice and rats. The LD50 described is the dose for which 50% of the animals survive 10 days after administration of the compound.

[5] = LD50 in rats, p.o.; conditions: rat, in vivo, po, dose for which 50% of the animals survive 10 days after administration
Experimental: as §1

[6] = Rosenberg and Bottiroli, Proc. Soc. Exp. Biol. 1964; cited from earlier work
[7] = mice, p.o., maximal electroshock, Table 3
[8] = mice, p.o., maximal electroshock, Table 4 (naphthyl compounds)

Nc1nnc(-c2ccccc2Br)c(N)n1 [2-Br NH2, 3,5-diamino-6-(2-bromophenyl)-1,2,4-triazine] showed an ED50 [1, 7] of 8.5 mg/kg.

In the case of Nc1nnc(-c2ccccc2I)c(N)n1 [2-I NH2, 3,5-diamino-6-(2-iodophenyl)-1,2,4-triazine], the ED50 [1, 7] is reported as 11.8 mg/kg.

Work on Nc1nnc(-c2ccccc2C(F)(F)F)c(N)n1 [2-CF3 NH2, 3,5-diamino-6-(2-trifluoromethylphenyl)-1,2,4-triazine] yielded an ED50 [1, 7] of 20 mg/kg.

In the case of Nc1nnc(-c2ccc(Cl)cc2Cl)c(N)n1 [2,4-dichlorophenyl], the antimalarial activity [2] is given as “only slight antimalarial activity”.

Molecule Nc1nnc(-c2cccc3ccccc23)c(N)n1 [H, 3,5-diamino-6-(1-naphthyl)-1,2,4-triazine] has an ED50 [1, 8] of 2.9 mg/kg.

Nc1nnc(-c2cc(Cl)ccc2Br)c(N)n1 [2-Br, 5-Cl NH2, 3,5-diamino-6-(2-5-chlorophenyl)-1,2,4-triazine] gave an ED50 [1, 7] of 4.6 mg/kg.

Molecule CC(=O)Nc1nc(N)nnc1-c1cccc(Cl)c1Cl [2,3-Cl2 NHCOCH3, 5-acetamido-3-amino-6-(2,3-dichlorophenyl)-1,2,4-triazine] has an ED50 [1, 7] of 5 mg/kg.

Molecule Cc1ccccc1-c1nnc(N)nc1N [2-Me NH2, 3,5-diamino-6-(2-methylphenyl)-1,2,4-triazine] has an ED50 [1, 7] of 15 mg/kg.

Nc1nnc(-c2cc(Cl)cc3ccccc23)c(N)n1 [3-Cl, 3,5-diamino-6-(3-chloro-1-naphthyl)-1,2,4-triazine] showed an ED50 [1, 8] of 6.5 mg/kg.

Cc1ccc2ccccc2c1-c1nnc(N)nc1N [2-Me, 3,5-diamino-6-(2-methyl-1-naphthyl)-1,2,4-triazine] gave an ED50 [1, 8] of 16.5 mg/kg.

In the case of Nc1nnc(-c2ccc(C(F)(F)F)cc2)c(N)n1 [4-trifluoromethylphenyl], the antimalarial activity [2] is given as “still being active against malaria” and the toxicity ([3]; Rees et al) is given as “less toxic than the chlorophenyl compounds”.

In the case of Nc1nnc(-c2cc(Cl)ccc2Cl)c(N)n1 [2,5-Cl2 NH2, 3,5-diamino-6-(2,5-dichlorophenyl)-1,2,4-triazine], the LD50 at 240 h [4] is reported as 708 mg/kg, the ED50 [1, 7] is reported as 3.3 mg/kg and the LD50 at 240 h [5] is reported as > 640 mg/kg.

Nc1nnc(-c2ccc(Br)cc2Cl)c(N)n1 [2-Cl, 4-Br NH2, 3,5-diamino-6-(4-bromo-2-chlorophenyl)-1,2,4-triazine] showed an ED50 [1, 7] of 12.8 mg/kg.

In the case of Nc1nnc(-c2ccc(Cl)cc2)c(N)n1 [4-chlorophenyl], the antimalarial activity [2] is listed as “active against the malaria organism Plasmodium berghei in mice”, the toxicity ([3]; Rees et al) is listed as “toxic at curative doses” and the therapeutic ratio ([3]; malaria, Rees et al) is listed as “low therapeutic ratio”.

In the case of Nc1nnc(-c2cc(Br)ccc2Cl)c(N)n1 [2-Cl, 5-Br NH2, 3,5-diamino-6-(5-bromo-2-chlorophenyl)-1,2,4-triazine], the ED50 [1, 7] is reported as 6 mg/kg.

For Nc1nnc(-c2cccc(Cl)c2Cl)c(N)n1 [2,3-Cl2 NH2, 3,5-diamino-6-(2,3-dichlorophenyl)-1,2,4-triazine], the LD50 at 240 h [4] was 250 mg/kg, the ED50 [1] was 2.4 mg/kg and the LD50 at 240 h [5] was > 640 mg/kg.

Molecule Nc1nnc(-c2c(F)cccc2Cl)c(N)n1 [2-Cl, 6-F NH2, 3,5-diamino-6-(2-chloro-6-fluorophenyl)-1,2,4-triazine] has an ED50 [1, 7] of 12.2 mg/kg.

For CCN(CCO)CCCC(C)Nc1ccnc2cc(Cl)ccc12 (stereo not drawn) [hydroxychloroquine], the anticonvulsant activity profile [6] is listed as “favourable activity profile”.

Nc1nnc(-c2cc(Cl)cc(Cl)c2Cl)c(N)n1 [2,3,5-Cl3 NH2, 3,5-diamino-6-(2,3,5-trichlorophenyl)-1,2,4-triazine] gave an ED50 [1, 7] of 0.65 mg/kg.

In the case of CN(C)C=Nc1nc(N)nnc1-c1cccc(Cl)c1Cl.O=C(O)C(=O)O [2,3-Cl2 NCHNMe2, 3-amino-6-(2,3-dichlorophenyl)-5-dimethylaminomethyleneamino-1,2,4-triazine oxalate], the ED50 [1, 7] is reported as 5 mg/kg.

In the case of Nc1nnc(-c2ccc(Cl)c(Cl)c2)c(N)n1 [3,4-dichlorophenyl], the antimalarial activity [2] is given as “active against the malaria organism Plasmodium berghei in mice”, the toxicity ([3]; Rees et al) is given as “toxic at curative doses” and the therapeutic ratio ([3]; mouse, in vivo) is given as “low therapeutic ratio”.
